Experimental data: US10899759B2, “Positive allosteric modulators of the muscarinic acetylcholine receptor M1” (Vanderbilt University, priority 2016, dated 2021)
pEC50: −log10 of the molar value.

Biological target: T1, human mAChR M1 (Homo sapiens, UniProt P11229)
T1 construct: host or cells: CHO-K1
T1 sequence (P11229 1-460): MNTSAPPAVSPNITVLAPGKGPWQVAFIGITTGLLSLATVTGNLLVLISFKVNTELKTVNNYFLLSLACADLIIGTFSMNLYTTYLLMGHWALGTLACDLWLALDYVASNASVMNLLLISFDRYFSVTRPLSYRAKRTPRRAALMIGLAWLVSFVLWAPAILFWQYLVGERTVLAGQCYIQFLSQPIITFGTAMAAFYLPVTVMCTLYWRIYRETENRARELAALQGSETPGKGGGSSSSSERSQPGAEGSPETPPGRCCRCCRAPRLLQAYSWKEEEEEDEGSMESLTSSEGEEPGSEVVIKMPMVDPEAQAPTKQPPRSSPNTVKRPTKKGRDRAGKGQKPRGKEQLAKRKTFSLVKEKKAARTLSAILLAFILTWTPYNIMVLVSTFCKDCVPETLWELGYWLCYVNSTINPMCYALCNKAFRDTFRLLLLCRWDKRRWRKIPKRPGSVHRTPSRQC
Assay: mAChR M1 cell-based functional assay (calcium mobilization, Fluo-4, FDSS)
Settings: CHO-K1 cells stably expressing hM1; for Emax: EC20 acetylcholine response, read-out: Human M1 Emax; for pEC50: positive allosteric modulator activity as increase in the EC20 acetylcholine response
Procedure, shortened: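 CHO-K1 cells stably expressing muscarinic receptor, loaded with Fluo-4; 11-point 1:3 compound series added and calcium flux read over 300 s at 1 Hz. Agonism from direct calcium rise, PAM activity as potentiation of EC20 acetylcholine, antagonism as decrease of EC80 acetylcholine; four-parameter logistic fits.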

| Emax [%] | pEC50 | SMILES |
| --- | --- | --- |
| 78.1 | 6.43 | Cn1ccc(-c2ccc(Cc3cc(C(=O)NC4CC5(COC5)C4)nc4c3ccn4C)cn2)n1 [Compound 149, 1-methyl-4-[[6-(1-methylpyrazol-3-yl)-3-pyridyl]methyl]-N-(2-oxaspiro[3.3]heptan-6-yl)pyrrolo[2,3-b]pyridine-6-carboxamide] |
| 78 | 5.98 | Cn1ccc(-c2ccc(Cc3cc(C(=O)N[C@@H]4CC[C@H]4O)nc4c3ccn4C)cc2)n1 [Compound 41, N-[(1R,2R)-2-hydroxycyclobutyl]-1-methy1-4-[[4-(1-methylpyrazol-3-yl)phenyl]methyl]pyrrolo[2,3-b]pyridine-6-carboxamide] |
| 84.6 | 6.42 | Cc1nc(-c2ccc(Cc3cc(C(=O)NC4CC5(COC5)C4)nc4c3ccn4C)cc2)co1 [Compound 54, 1-methyl-4-[[4-(2-methyloxazol-4-yl)phenyl]methyl]-N-(2-oxaspiro[3.3]heptan-6-yl)pyrrolo[2,3-b]pyridine-6-carboxamide] |
| 47.8 | 8.00 | O=C(N[C@H]1CCOC[C@@H]1O)c1cc(Cc2ccc(-n3cccn3)cc2)c2ccsc2n1 [Compound 70] |
| 87.1 | 6.85 | Cn1cc(-c2ccc(Cc3cc(C(=O)NC4CC5(COC5)C4)nc4c3ccn4C)cn2)cn1 [Compound 48, 1-methyl-4-[[6-(1-methylpyrazol-4-yl)-3-pyridyl]methyl]-N-(2-oxaspiro[3.3]heptan-6-yl)pyrrolo[2,3-b]pyridine-6-carboxamide] |
| 73.3 | 6.41 | Cn1ccc2c(Cc3ccc(-n4cccn4)cc3)cc(C(=O)N[C@H]3CC[C@@H]3O)nc21 [Compound 20, N-[(1S,2S)-2-hydroxycyclobutyl]-1-methy1-4-[(4-pyrazol-1-ylphenyl)methyl]pyrrolo[2,3-b]pyridine-6-carboxamide] |
| 62.4 | 7.30 | Cn1ccc(-c2ccc(Cc3cc(C(=O)N[C@H]4CCCC[C@@H]4O)nc4sccc34)cc2)n1 [Compound 88, N-[(1S,2S)-2-hydroxycyclohexyl]-4-[[4-(1-methylpyrazol-3-yl)phenyl]methyl]thieno[2,3-b]pyridine-6-carboxamide] |
| 73.1 | 6.74 | Cn1ccc2c(Cc3ccc(-n4cccn4)cc3)cc(C(=O)NC3CCOCC3)nc21 [Compound 18, 1-methyl-4-[(4-pyrazol-1-ylphenyl)methyl]-N-tetrahydropyran-4-yl-pyrrolo[2,3-b]pyridine-6-carboxamide] |
| 69.4 | 6.82 | CCn1ccc2c(Cc3ccc(-n4cccn4)cc3)cc(C(=O)N[C@H]3CCC[C@@H]3O)nc21 [Compound 14, 1-ethyl-N-[(1S,2S)-2-hydroxycyclopentyl]-4-[(4-pyrazol-1-ylphenyl)methyl]pyrrolo[2,3-b]pyridine-6-carboxamide] |
| 68.1 | 6.43 | CC1CC(NC(=O)c2cc(Cc3ccc(-n4cccn4)cc3)c3ccsc3n2)CC(C)O1 (stereo not shown) [Compound 73, N-(2,6-dimethyltetrahydropyran-4-yl)-4-[(4-pyrazol-1-ylphenyl)methyl]thieno[2,3-b]pyridine-6-carboxamide] |
| 58.4 | 6.96 | CC1COCCC1NC(=O)c1cc(Cc2ccc(-c3ccn(C)n3)nc2)c2ccsc2n1 (stereo not shown) [Compound 106, 4-[[6-(1-methylpyrazol-3-yl)-3-pyridyl]methyl]-N-(3-methyltetrahydropyran-4-yl)thieno[2,3-b]pyridine-6-carboxamide] |
| 72.7 | 5.90 | CC(NC(=O)c1cc(Cc2ccc(-c3ccn(C)n3)nc2)c2ccn(C)c2n1)C1CCCO1 (stereo not shown) [Compound 157, 1-methyl-4-[[6-(1-methylpyrazol-3-yl)-3-pyridyl]methyl]-N-(1-tetrahydrofuran-2-ylethyl)pyrrolo[2,3-b]pyridine-6-carboxamide] |
| 66 | 5.51 | Cn1ccc2c(Cc3ccc(-c4cscn4)cc3)cc(C(=O)NC3CN(C4COC4)C3)nc21 [Compound 36, 1-methyl-N-[1-(oxetan-3-yl)azetidin-3-yl]-4-[(4-thiazol-4-ylphenyl)methyl]pyrrolo[2,3-b]pyridine-6-carboxamide] |
| 61.8 | 6.85 | CCn1ccc2c(Cc3ccc(-n4cccn4)cc3)cc(C(=O)N[C@H]3CCCCC[C@@H]3O)nc21 [Compound 15, 1-ethyl-N-[(1S,2S)-2-hydroxycycloheptyl]-4-[(4-pyrazol-1-ylphenyl)methyl]pyrrolo[2,3-b]pyridine-6-carboxamide] |
| 64.7 | 7.70 | CCn1ccc2c(Cc3ccc(-n4cccn4)cc3)cc(C(=O)N[C@H]3CCOC[C@@H]3O)nc21 [Compound 9, 1-ethyl-N-[(3R,4S)-3-hydroxytetrahydropyran-4-yl]-4-[(4-pyrazol-1-ylphenyl)methyl]pyrrolo[2,3-b]pyridine-6-carboxamide] |
| 59.3 | 7.70 | Cn1ccc2c(Cc3ccc(-c4cscn4)cc3)cc(C(=O)N[C@H]3CCOC[C@@H]3O)nc21 [Compound 21, N-[(3R,4S)-3-hydroxytetrahydropyran-4-yl]-1-methyl-4-[(4-thiazol-4-ylphenyl)methyl]pyrrolo[2,3-b]pyridine-6-carboxamide] |
| 70.7 | 6.39 | CCn1ccc2c(Cc3ccc(-n4cccn4)cc3)cc(C(=O)N[C@H]3CC[C@@H]3O)nc21 [Compound 13, 1-ethyl-N-[(1S,2S)-2-hydroxycyclobutyl]-4-[(4-pyrazol-1-ylphenyl)methyl]pyrrolo[2,3-b]pyridine-6-carboxamide] |
| 75.1 | 6.72 | Cn1ccc(-c2ccc(Cc3cc(C(=O)N[C@H]4CCC[C@@H]4O)nc4c3ccn4C)cn2)n1 [Compound 153, N-[(1S,2S)-2-hydroxycyclopentyl]-1-methyl-4-[[6-(1-methylpyrazol-3-yl)-3-pyridyl]methyl]pyrrolo[2,3-b]pyridine-6-carboxamide] |
| 35.9 | < 5.00 | Cc1nc(-c2ccc(Cc3cc(C(=O)NC4CC(F)C4)nc4sccc34)cc2)co1 (stereo not shown) [Compound 141] |
| 59.6 | 5.78 | Cn1ccc2c(Cc3ccc(-c4nccs4)cc3)cc(C(=O)NC3CCOC(C)(C)C3)nc21 (stereo not shown) [Compound 66, N-(2,2-dimethyltetrahydropyran-4-yl)-1-methyl-4-[(4-thiazol-2-ylphenyl)methyl]pyrrolo[2,3-b]pyridine-6-carboxamide] |
| 74 | 6.55 | CCn1ccc2c(Cc3ccc(-n4cccn4)cc3)cc(C(=O)NC3CCOCC3)nc21 [Compound 11, 1-ethyl-4-[(4-pyrazol-1-ylphenyl)methyl]-N-tetrahydropyran-4-yl-pyrrolo[2,3-b]pyridine-6-carboxamide] |
| 74.3 | 8.00 | Cn1cc(-c2ccc(Cc3cc(C(=O)N[C@H]4CCOC[C@@H]4O)nc4c3ccn4C)cn2)cn1 [Compound 45, N-[(3R,4S)-3-hydroxytetrahydropyran-4-yl]-1-methyl-4-[[6-(1-methylpyrazol-4-yl)-3-pyridyl]methyl]pyrrolo[2,3-b]pyridine-6-carboxamide] |
| 60.8 | 6.55 | COCCNC(=O)c1cc(Cc2ccc(-c3coc(C)n3)cc2)c2ccsc2n1 [Compound 143, N-(2-methoxyethyl)-4-[[4-(2-methyloxazol-4-yl)phenyl]methyl]thieno[2,3-b]pyridine-6-carboxamide] |
